Columns and labels:
hiPS cells [1] = experiment: Clonal assay evaluated by alkaline phosphatase (ALP) assay; format: cell-based, human; conditions: single cell per well, Matrigel-coated 96-well plates, blebbistatin 5 μM, 7 days
Method: hES or hiPS cells in mTeSR supplemented with or without blebbistatin were plated on Matrigel-coated 96-well plates at a single cell per well. Seven days after plating, cells were subjected to alkaline phosphatase assay using Alkaline Phosphatase Detection Kit (Millipore) according to the manufacturer's instruction.

hiPS cells [2] = experiment: Cell viability assay under adherence conditions (trypan blue live cell counting); format: cell-based, human; conditions: 10 μM, 24 h after plating 1×10^5 cells/well, n=3
Method: hES or hiPS cells were plated at 1×10^5 cells/well on 12-well plates coated with PDL or Matrigel in mTeSR in the presence or absence of blebbistatin or Y-27632 at various concentrations in triplicates. DMSO (solvent for blebbistatin) was also added in the control condition and found to have no effect on viability. For mES cells, cells were plated under the same condition except for the use of gelatin coating and mES medium. After 24 h, cells were harvested, trypsinized to single cells, and counted by hemocytometer. Cell counting was performed independently by two researchers to confirm the consistency. The same samples were used for TUNEL assay immediately after taking a small fraction of the sample for cell counting.

hiPS cells [3] = experiment: Defined culture on PDL coating in mTeSR (self-renewal over passages); format: cell-based, human
Method: Cell culture. Two independent hES cell lines, H9 (WiCell) and BGN01 (BresaGen), were examined. hiPS cells used in the study include iPS (Foreskin) Clone 1 (WiCell) and two independently derived hiPS cells from normal human dermal fibroblasts (NHDF) which have been characterized by a series of molecular and functional assays. For the regular feeder-free culture, hES or hiPS cells were grown on Matrigel (BD Biosciences)-coated plates in a defined medium, mTeSR (StemCell Technologies). Cells were regularly passaged by the standard method using dispase (Invitrogen) or trypsin-EDTA (Lonza). General stem cell culture techniques are described in Freshney et al., Culture of Human Stem Cells (Culture of Specialized Cells), John Wiley & Sons, 1992 (the disclosure of which is incorporated herein by reference for all purposes). mES cells used in the experiment include CJ7, E14, RW4 (a parental line of NMHCIIA^−/A^− mES cells), NMHCIIA^−/A^−, and NMHCIIB^−/B^− mES cells. Cells were maintained on either mitotically inactivated mouse embryonic fibroblasts or gelatin (Sigma)-coated dishes with the standard medium in the presence of leukemia inhibitory factor (LIF) at 1400 U/ml (Millipore). For the microscopic or immunofluorescent analysis, cells were plated at approximately 5000-10000 cells/cm^2. For the defined culture, cells were plated at approximately 10000 cells/cm^2 on plates freshly coated with PDL or PDL-precoated plates (BD Bioscience) in mTeSR supplemented with 2.5 to 5 μM of blebbistatin or Y-27632. Medium was changed every day or every other day depending on confluency. Cells were passaged by using trypsin-EDTA every 3 to 4 days.

hiPS and hES cells = experiment: Standard G-banded karyotyping; format: cell-based, human; conditions: cells grown under blebbistatin/PDL for 20 passages
Method: Standard G-banded karyotyping was carried out for each cell line approximately every 10 to 20 passages.

hiPS cells and hES cells = experiment: Cell survival / embryoid body formation in low-density suspension culture; format: cell-based, human; conditions: compared with Y27632
From the text: While hiPS and hES cells can form cell aggregates and subsequently grow as embryoid bodies when plated at high densities on non-adhesive culture surfaces such as non-tissue culture-treated plates, they mostly undergo apoptosis when plated at low densities that prevent cells from forming aggregates. This is because human pluripotent stem cells are epithelical cells that are programmed to activate cell death signals upon detachment from culture surface (anoikis).

[4] = tested on: hES or hiPS cells grown under the defined condition; experiment: Teratoma formation in SCID/beige mice; format: in vivo, mouse; conditions: cells grown under blebbistatin/PDL for 20 passages, about 2×10^6 cells subcutaneously, 4 to 8 weeks
From the text: All animal-related protocols were approved by Institutional Animal Care and Use Committee. Cells (approximately 2×10^6 cells) grown under defined conditions for multiple passages with occasional freezing and thawing were subcutaneously injected into severe combined immunodeficient (SCID)/beige mice (Charles River Laboratories). After 4 to 8 weeks, the developed teratomas were excised, fixed in 4% paraformaldehyde or 10% formalin, and subjected to histological section preparations.

Cc1ccc2c(c1)C(=O)C1(O)CCN(c3ccccc3)C1=N2 (stereo not drawn) [blebbistatin, 1-Phenyl-1,2,3,4-tetrahydro-4-hydroxypyrrolo[2,3-b]-7-methylquinolin-4-one]
Cloning efficiency (ratio of wells with an ALP-positive colony to wells seeded) (hiPS cells [1]): 29±1.8%
Number of viable cells (hiPS cells [2]; hiPS cells on Matrigel coating): 8.6±0.6×10^4 cells
Number of viable cells (hiPS cells [2]; hiPS cells on PDL): 7.9±0.6×10^4 cells
Growth and cell survival rates compared with Y27632 (hiPS cells [3]): higher growth and cell survival rates than the cells treated with Y27632
Cytokinesis defects such as multinucleated cells (hiPS cells [3]; 2.5 μM, over 15 passages): without any signs of cytokinesis defects
Minimum concentration sufficient for supporting cell-matrix interactions but not affecting cell-cell adhesions (hiPS cells [3]; PDL-coating, mTeSR): 2.5 µM
Karyotype (hiPS and hES cells): maintain genomic integrity
Cell survival in low-density suspension culture (hiPS cells and hES cells): markedly increased cell survival
Teratoma histology [4]: contain all three germ-layer derived differentiated tissues
